Measurements reported in US9107936B2, “Antagonists of GRASP55 for use as a medicament” (Institut National de la Sante et de la Recherche Medicale …, priority 2012, dated 2015).

Experiments:
Format in all cases: binding, murine
[1] = target: T1, GST-PDZI′ (Grasp55 residues 1 to 107) (Mus musculus, UniProt Q99JX3); experiment: HTRF measurement of interaction of biotinylated C-terminal peptides with GST-PDZI′; conditions: biotinylated JAM-C peptide, GST-PDZI′
T1 construct: GST fusion proteins encompassing residues 1 to 107; made in house; host or cells: bacteria Rosetta
Procedure: (§1) To refine and extend the results obtained by yeast two hybrid, an Homogenous Time Resolved Fluorescence (HTRF) assay have been set-up to measure interactions of various peptides with recombinant GST proteins corresponding to different regions of Grasp55.
(§2) Briefly, the technique consisted in incubating 18 h at 4° C. the biotinylated-Cterminal peptides (SEQ ID NO: 26 to 34) at the concentration of 1.9*10^−7M with the GST-fusion protein, the terbium-coupled anti-GST antibody (8*10^−10M each) and the d2-coupled streptavidin (4*10^−8M) (both from Cisbio), in 0.1 mL of Hepes 0.05M, NaCl 0.15M BSA 0.1% pH 7.2. In some experiments, competing peptide or chemicals were added to the incubation mix at the indicated concentration. After incubation, microtiter plates (Costar #3693) were red using PolarScan Omega (BMG Labtech) equipped for HTRF measurements. Upon excitation at 320 nm, a 620 nm fluorescence emission is produced by the donor terbium that in turn excites a 665 nm light emission by a Streptavidin-d2 (acceptor) bound to the Biotinylated interacting Peptide if the latter is interacting with the donor. The […] R ratio is obtained and a Delta F is computed as: [(Rsample−RNSB)/RNSB]*100 where RNSB is the Non Specific Background signal determined in incubates where the GST-fusion protein was omitted.
(§3) Having shown that HTRF measurement of interaction is a reliable technology to identify inhibitors of interaction. A screen of a chemical compound library provided by MRCt has been initiated. The screening consisted in the same HTRF technique used in Example 7 except that compounds from the library were added in the incubation mix at the final concentration of 6.6×10^−5M. […] Since such a result could be either due to a specific inhibition of the JAM-C peptide interaction to the recombinant Grasp55 PDZ domains or to a non-specific inhibition of the FRET signal between donor and acceptor in HTRF technology, the twenty selected compounds have been further tested. Indeed, compounds could potentially interfere with the binding of the anti-GST antibody terbium-labeled to the GST of the fusion protein, the binding of Streptavidin-d2 to the biotinylated peptide or promote strong interference at 320, […] or 665 nm. Thus, the putative hits obtained were screened for non-specific inhibition. To this end, the GST-PDZI′+II′ recombinant protein was biotinylated using Sulfo-NHS Biotin according to manufacturer instructions (Pierce). This allows designing an HTRF assay in which the d2-coupled streptavidin (acceptor) and the terbium-coupled anti-GST antibody are directly bound to recombinant GST-PDZI′+II′ protein and produce DeltaF signal independently of the biotinylated peptide. The twenty selected compounds were thus tested in this assay to eliminate those giving false inhibition of the HTRF signals while inhibitors of Biotinylated peptide interaction with GST-PDZI′+II′ should not interfere in this assay.

[2] = target: T2, GST-PDZI′+II′ (Grasp55 residues 1 to 208) (Mus musculus, UniProt Q99JX3); experiment: HTRF measurement of interaction of biotinylated C-terminal peptides with GST-PDZI′+II′; conditions: biotinylated JAM-C peptide, GST-PDZI′+II′
T2 construct: and 1 to 208 corresponding respectively to the PDZI′, PDZII′ and PDZI′+II′ constructs; made in house; host or cells: bacteria Rosetta
Procedure: as §1, §2, §3

[3] = target: T3, GST-GraspFL (GST-Grasp55 full length) (Mus musculus, UniProt Q99JX3); experiment: HTRF competition with GST-Grasp55 full length; conditions: biotinylated JAM-C peptide
T3 construct: GST-GraspFL (GST-Grasp55 full length); made in house; host or cells: bacteria Rosetta
Procedure: as §1
as §2, with “omitted. […]” for “omitted.”

## NYIRTSEEGDFRHKSSFVI [unlabelled peptide]
[1]
  increase in EC50 with GST-PDZI′ versus GST-PDZI′+II′ and GST-GraspFL: twenty fold increase in EC50
[2]
  EC50 of competition of the HTRF signal: low micromolar range
[3]
  EC50 of competition of the HTRF signal: low micromolar range
